ChEMBL document CHEMBL5058564, “EUbOPEN Chemogenomics Library 2 (Incucyte)” (2022)

Assays:
Assay type in all cases: toxicity, cell-based
[1] = tested on: HEK-293T; assay: Incucyte cell viability with HEK293T; settings: human, 10 µM, compound concentration 10 uM
[2] = tested on: Fibroblast; assay: Incucyte cell viability with human fibroblast; settings: 10 µM, compound concentration 10 uM
[3] = tested on: U2OS; assay: Incucyte cell viability with U2OS; settings: human, 10 µM, compound concentration 10 uM
[4] = 0 h, replicate number 2, timepoint 0 hours
[5] = 6 h, replicate number 1, timepoint 6 hours
[6] = 18 h, replicate number 1, timepoint 18 hours
[7] = 24 h, replicate number 1, timepoint 24 hours
[8] = 12 h, replicate number 1, timepoint 12 hours
[9] = 12 h, replicate number 2, timepoint 12 hours
[10] = 6 h, replicate number 2, timepoint 6 hours
[11] = 18 h, replicate number 2, timepoint 18 hours
[12] = 24 h, replicate number 2, timepoint 24 hours
[13] = 0 h, replicate number 1, timepoint 0 hours
Also: unitless GR value; below 1 slowed growth and below 0 cell loss.

Row | SMILES | Growth Rate [1, 4] | Growth Rate [1, 5] | Growth Rate [1, 6] | Growth Rate [1, 7] | Growth Rate [2, 5] | Growth Rate [2, 8] | Growth Rate [2, 9] | Growth Rate [2, 6] | Growth Rate [3, 4] | Growth Rate [3, 10] | Growth Rate [3, 11] | Growth Rate [3, 12] | Growth Rate [1, 9] | Growth Rate [2, 7] | Growth Rate [1, 11] | Growth Rate [2, 13] | Growth Rate [2, 4] | Growth Rate [1, 8] | Growth Rate [2, 10] | Growth Rate [3, 9] | further results
1 | CC1(C)[C@H]2C[C@H](C/C=C\CCCC(=O)O)[C@@H](NC(=O)c3csc4ccc(O)cc34)[C@@H]1C2 | 0.67 | 0.73 | 0.94 | 0.85 | 0.09 | 0.51 | 0.75 | 0.69 | -0.79 | 0.91 | 0.81 | 0.86 |  |  |  |  |  |  |  |  | Growth Rate [3, 5]: 0.23; Growth Rate [3, 8]: 0.14; Growth Rate [3, 6]: 0.37; Growth Rate [3, 7]: 0.66
2 | CN1CCc2cc(Cl)c(O)cc2[C@@H](c2ccccc2)C1.Cl | 0.66 |  |  |  | -0.06 | 1 |  |  | -1 | 0.49 | 0.86 | 0.95 | 0.71 | 0.88 |  |  |  |  |  |  | Growth Rate [1, 10]: 0.46
3 | CN1CCC(c2c[nH]c3ccc(O)cc23)CC1 | 0.25 |  | 0.98 |  | 0.11 |  |  |  | 0.6 |  |  |  | 0.98 |  | 0.89 | 0.18 | -0.25 |  |  |  | Growth Rate [1, 12]: 0.89; Growth Rate [3, 13]: 0.81; Growth Rate [3, 8]: 0.97
4 | c1ccc(NCc2ccc(CNc3ccccn3)cc2)nc1 | 0.94 | 0.66 | 0.98 |  |  | 0.23 | 0.64 | 0.88 | -1 |  | 0.98 |  | 0.83 | 0.76 |  |  |  | 0.44 | 1 |  | Growth Rate [1, 10]: 0.7; Growth Rate [3, 6]: 0.76; Growth Rate [3, 7]: 0.93
5 | O=C(CCCc1ccccc1)Nc1nc2ccccc2c(=O)s1 | 0.98 | 0.03 | 0.34 | 0.34 | -0.7 | -0.62 | -0.39 | -0.7 |  | 0.67 | 0.76 | 0.84 |  | -0.59 | 0.95 |  | 0.6 | 0.13 | -0.65 | 0.83 | Growth Rate [1, 12]: 0.84; Growth Rate [2, 11]: -0.32; Growth Rate [2, 12]: -0.34; Growth Rate [3, 13]: -0.37
6 | CSc1cc2c(cc1C(F)(F)F)N(C(=O)Nc1cccnc1)CC2 | -0.27 | 0.82 | 0.75 | 0.64 |  |  |  |  |  |  |  | 0.93 |  |  |  | -0.3 | 0.46 | 0.63 |  | 0.94 | Growth Rate [3, 6]: 0.84; Growth Rate [3, 7]: 0.99
7 | C[C@H](NC(=O)CNC(=O)c1cccc(Cl)c1)c1ccccc1 | 0.84 |  |  |  |  |  |  |  |  | 0.8 | 0.91 | 0.98 | 0.96 |  |  | 0.45 | 0.36 |  |  | 0.94 | Growth Rate [3, 13]: -0.7
8 | CCc1nn2c(C)cc(C)nc2c1Cc1ccc(-c2nnc(C3CCNCC3)o2)cc1 | 0.38 | 0.9 | 0.88 |  | -0.59 | -0.55 | 0.37 | -0.43 | 0.09 |  |  |  |  | -0.25 |  |  |  |  | 0.22 |  | Growth Rate [2, 11]: 0.56; Growth Rate [2, 12]: 0.65
9 | Fc1cccc(/C=N/N=C/c2cccc(F)c2)c1 | 0.2 | 0.72 | 0.89 | 0.96 | -0.08 | 0.7 |  |  | 0.84 | 0.83 |  |  |  | 0.91 |  |  |  | 0.77 |  | 0.84 | 
10 | CCOc1c2c(c(OCC)c3ncccc13)CN(c1ccc(CS(=O)(=O)NC(=O)Cc3ccccc3OC)cc1C)C2=O | 0.82 | 0.48 | 0.9 | 0.87 | 0.32 | 0.49 | -0.12 | 0.23 |  | 0.75 | 1 |  |  | -0.06 | 1 | 0.27 | 0.58 | 0.83 | -0.34 |  | Growth Rate [2, 11]: -0.18; Growth Rate [2, 12]: -0.4; Growth Rate [3, 13]: -0.69
11 | NC[C@H](O)c1ccc(O)c(O)c1.O.O=C(O)C(O)C(O)C(=O)O | 0.69 | 0.63 | 0.76 | 0.86 | 0.19 | 0.79 |  | 0.97 | 0.46 | 0.72 | 0.98 |  |  | 0.77 | 0.8 | 0.92 | 0.62 | 0.75 |  | 0.93 | 
12 | Cc1cccc(S(=O)(=O)N(C)[C@H](C)CCN2CCC(C)CC2)c1.Cl | 0.65 |  | 0.84 | 0.69 | 0.83 |  |  |  | -0.95 | 0.95 | 0.97 |  |  |  | 0.87 | 0.08 |  |  | 0.52 |  | Growth Rate [1, 10]: 0.92; Growth Rate [1, 12]: 0.66; Growth Rate [3, 13]: 0.29
13 | COc1ccc(NC(=O)c2ccc(-c3ccc(-c4noc(C)n4)cc3C)cc2)cc1OCCN(C)C.Cl | -0.89 | -0.88 | -0.53 | -0.45 | -0.36 | -0.41 | -0.33 | -0.47 | -1 |  | 0.28 | 0.14 | -0.38 | -0.57 | -0.31 |  |  | -0.65 | -0.28 | 0.51 | Growth Rate [1, 10]: -0.73; Growth Rate [1, 12]: -0.35; Growth Rate [2, 11]: -0.48; Growth Rate [2, 12]: -0.52; Growth Rate [3, 13]: -0.87; Growth Rate [3, 5]: -0.71; Growth Rate [3, 8]: -0.36; Growth Rate [3, 6]: -0.17; Growth Rate [3, 7]: -0.18
14 | COc1cc2nc(N3CCN(C(=O)COc4c(OC)cccc4C(C)C)CC3)nc(N)c2cc1OC.Cl.Cl | 0.59 | -0.28 | 0.21 | 0.39 | -0.72 | -0.84 | -0.41 | -0.75 | -1 |  |  |  | 0.66 | -0.65 | 0.61 |  | 0.71 | -0.06 | -0.55 |  | Growth Rate [1, 10]: 0.9; Growth Rate [1, 12]: 0.84; Growth Rate [2, 11]: -0.48; Growth Rate [2, 12]: -0.39; Growth Rate [3, 8]: 0.56
15 | C[C@H](N)COC(=O)[C@@H](CCCCN)NC(=O)Cc1c(-c2ccc3ccccc3c2)[nH]c2c1ccc1ccccc12 | 0.88 |  |  |  | 0.67 |  |  | 0.71 |  |  | 0.76 |  |  | 0.64 |  | 0.29 | 0.37 | 0.97 |  | 0.83 | Growth Rate [3, 5]: 0.46; Growth Rate [3, 8]: 0.89; Growth Rate [3, 6]: 0.73
16 | Br.Cc1cccc(C2CN(C)CCc3c2cc(O)c(O)c3Cl)c1 (stereo not drawn) | 0.8 | 0.81 | 0.95 | 0.93 |  |  |  |  |  | 0.97 | 0.92 | 0.97 | 0.8 |  | 0.81 | -0.09 | 0.18 | 0.71 |  |  | Growth Rate [1, 10]: 0.45; Growth Rate [3, 8]: 0.92; Growth Rate [3, 6]: 0.87; Growth Rate [3, 7]: 0.84
